Reference: paper PMC4948680 (European journal of pharmaceutical sciences : official …, 2016)

Tests used:
in vivo = experiment: in vivo; parameters: species or system SCID mice; conditions: SCID, mouse, iv, 10 pmol peptide, total radioactivity, %ID/g tissue
Description: The human epidermoid A431 cell line transfected to stably express the CCK2R (A431-CCK2R(+)) or devoid of CCK2R expression (A431-CCK2R(−)) used for tumour induction in this work was a gift from Prof. O. Boerman (Department of Nuclear Medicine, Radboud University Nijmegen Medical Centre, Nijmegen, The Netherlands) and Prof. L. Aloj (Istituto di Biostrutture e Bioimmagini, Consiglio Nazionale delle Ricerche, Naples, Italy) and cells were cultured as previously reported ([Aloj et al., 2004]). Suspensions of freshly harvested A431-CCK2R(±) cells (~150 μL, 1.6 × 10^7/1.4 × 10^7) in normal saline were subcutaneously injected in the flanks of mice.
Animals were euthanized in groups of four at 1 h, 4 h and 24 h pi; in a separate 4-h group animals received gelofusine (100 μL) together with the radioligand. […] Mice were dissected and samples of blood and tissues of interest as well as tumours were excised, weighted and counted for radioactivity in the gamma counter. Data was calculated as percent injected dose per gram tissue (%ID/g) with the aid of suitable standards of the injected dose and represent mean ± SD. In all above experiments, analysis of the solution used in the biodistribution experiment was conducted prior to and after completion of all animal injections.
Statistical analysis using the unpaired two-tailed Student’s t-test was performed to compare values between A431-CCK2R(+) and A431-CCK2R(−) tumours, as well as kidney, stomach and A431-CCK2R(+) tumour values between 4 h control and gelofusine-treated animal groups; values P < 0.05 were considered statistically significant (Table 2). The pharmacokinetic profile was determined by fitting an exponential curve through the organ time-activity data according to the least-squares method. The number of exponentials in the fitted curve was analysed according to the Aikake Information Criterion (AICc). All fitting was performed with Graphpad Prism version 5.

[1] = parameters: species or system mice
Description: Clearance kinetics in each organ was determined by exponential curve fitting. The time-integrated activity concentration (TIAC) was obtained by integration of this exponential curve folded with the decay curve of ^111In and ^177Lu.Mouse dosimetry was calculated for both ^177Lu and ^111In using the TIAC and the 25 g RADAR mouse absorbed dose rates per unit activity S for each source and target organ combination ([Keenan et al., 2010]; [Konijnenberg et al., 2014]).

SMILES: CSCC[C@H](NC(=O)[C@H](Cc1c[nH]c2ccccc12)NC(=O)CNC(=O)[C@H](Cc1ccc(O)cc1)NC(=O)[C@H](C)NC(=O)[C@@H](CCC(=O)O)NC(=O)[C@@H](CCC(=O)O)NC(=O)[C@@H](CCC(=O)O)NC(=O)[C@@H](CCC(=O)O)NC(=O)[C@@H](CCC(=O)O)NC(=O)[C@@H](CCC(=O)O)NC(=O)CN1CCN(CC(=O)O)CCN(CC(=O)O)CCN(CC(=O)O)CC1)C(=O)N[C@@H](CC(=O)O)C(=O)N[C@@H](Cc1ccccc1)C(N)=O [^111In-CP04, ^111In-DOTA-(DGlu)6-Ala-Tyr-Gly-Trp-Met-Asp-Phe-NH2, metal not drawn]
- tissue uptake at 1 h (in vivo; Blood): 0.55 ± 0.17 %ID/g
- tissue uptake at 4 h (in vivo; Blood): 0.02 ± 0.01 %ID/g
- tissue uptake at 1 h (in vivo; Femur): 0.96 ± 0.46 %ID/g
- tissue uptake at 4 h (in vivo; Femur): 0.3 ± 0.22 %ID/g
- tissue uptake at 24 h (in vivo; Femur): 0.24 ± 0.09 %ID/g
- tissue uptake at 1 h (in vivo; Heart): 0.24 ± 0.08 %ID/g
- tissue uptake at 4 h (in vivo; Heart): 0.02 ± 0.01 %ID/g
- tissue uptake at 24 h (in vivo; Heart): 0.02 %ID/g
- tissue uptake at 1 h (in vivo; Intestines): 0.36 ± 0.13 %ID/g
- tissue uptake at 4 h (in vivo; Intestines): 0.22 ± 0.08 %ID/g
- tissue uptake at 24 h (in vivo; Intestines): 0.1 ± 0.04 %ID/g
- tissue uptake at 1 h (in vivo; Kidneys): 5.53 ± 0.78 %ID/g
- tissue uptake at 4 h (in vivo; Kidneys): 5.55 ± 0.94 %ID/g
- tissue uptake at 24 h (in vivo; Kidneys): 3.29 ± 0.56 %ID/g
- tissue uptake at 1 h (in vivo; Liver): 0.38 ± 0.12 %ID/g
- tissue uptake at 24 h (in vivo; Liver): 0.01 ± 0.01 %ID/g
- tissue uptake at 1 h (in vivo; Lung): 0.47 ± 0.13 %ID/g
- tissue uptake at 4 h (in vivo; Lung): 0.04 ± 0.01 %ID/g
- tissue uptake at 24 h (in vivo; Lung): 0.03 ± 0.01 %ID/g
- tissue uptake at 4 h (in vivo; Muscle): 0.03 ± 0.02 %ID/g
- tissue uptake at 24 h (in vivo; Muscle): 0.01 ± 0.01 %ID/g
- tissue uptake at 1 h (in vivo; Pancreas): 0.23 ± 0.08 %ID/g
- tissue uptake at 4 h (in vivo; Pancreas): 0.06 ± 0.01 %ID/g
- tissue uptake at 24 h (in vivo; Pancreas): 0.05 ± 0.01 %ID/g
- tissue uptake at 4 h (in vivo; Spleen): 0.04 ± 0.02 %ID/g
- tissue uptake at 24 h (in vivo; Spleen): 0.05 ± 0.01 %ID/g
- tissue uptake at 1 h (in vivo; Stomach): 2.6 ± 0.48 %ID/g
- tissue uptake at 4 h (in vivo; Stomach): 2.09 ± 0.32 %ID/g
- tissue uptake at 24 h (in vivo; Stomach): 1.58 ± 0.15 %ID/g
- tissue uptake at 1 h (in vivo; Tumour(+) (A431-CCK2R(+))): 12.6 ± 1.73 %ID/g
- tissue uptake at 4 h (in vivo; Tumour(+) (A431-CCK2R(+))): 9.24 ± 1.35 %ID/g
- tissue uptake at 24 h (in vivo; Tumour(+) (A431-CCK2R(+))): 4.98 ± 0.56 %ID/g
- tissue uptake at 1 h (in vivo; Tumour(–) (A431-CCK2R(–))): 1.07 ± 0.29 %ID/g
- tissue uptake at 24 h (in vivo; Tumour(–) (A431-CCK2R(–))): 0.1 ± 0.02 %ID/g
- Absorbed dose per injected activity, Bone [1]: 9 mGy/MBq
- Absorbed dose per injected activity, Kidneys [1]: 56 mGy/MBq
- Absorbed dose per injected activity, Large intestine [1]: 7 mGy/MBq
- Absorbed dose per injected activity, Liver [1]: 3 mGy/MBq
- Absorbed dose per injected activity, Lungs [1]: 3 mGy/MBq
- Absorbed dose per injected activity, Pancreas [1]: 5 mGy/MBq
- Absorbed dose per injected activity, Small intestine [1]: 7 mGy/MBq
- Absorbed dose per injected activity, Spleen [1]: 3 mGy/MBq
- Absorbed dose per injected activity, Stomach wall [1]: 15 mGy/MBq
- Absorbed dose per injected activity, Total body [1]: 4 mGy/MBq
